What was measured:
[1] = test system: antibodies in sera from SARS patients (sera 1a, 1b, 2, 6, 37, 62, London, SARS-yellow, SARS-green); format: binding, human; parameters: Binding of serum 6 to linear peptides of protein X1 of SARS-CoV Urbani / Binding of serum 37 to linear peptides of protein X1 of SARS-CoV Urbani / Binding of serum 6 to looped/cyclic peptide (PEPSCAN-ELISA) / Binding of serum 37 to looped/cyclic peptide (PEPSCAN-ELISA) / Binding of serum 37 to looped/cyclic peptides of protein X1 of SARS-CoV Urbani / Binding of serum 6 to linear peptides of protein X2 / Binding of serum 37 to linear peptides of protein X2 / Binding of serum 37 to looped/cyclic peptides of protein X2 of SARS-CoV Urbani / Binding of serum 6 to linear peptides of protein M of SARS-CoV Urbani / Binding of serum 37 to linear peptides of protein M of SARS-CoV Urbani / Binding of serum 6 to looped/cyclic peptides of protein M of SARS-CoV Urbani / Binding of serum 37 to looped/cyclic peptides of protein M of SARS-CoV Urbani / Binding of serum 6 to linear peptides of protein X3 of SARS-CoV Urbani / Binding of serum 37 to linear peptides of protein X3 of SARS-CoV Urbani / Binding of serum 37 to looped/cyclic peptides of protein X3 of SARS-CoV Urbani / Binding of serum 6 to linear peptides of protein X4 of SARS-CoV Urbani / Binding of serum 37 to linear peptides of protein X4 of SARS-CoV Urbani / Binding of serum 37 to looped/cyclic peptides of protein X4 of SARS-CoV Urbani / Binding of serum 6 to linear peptides of protein X5 of SARS-CoV Urbani / Binding of serum 37 to linear peptides of protein X5 of SARS-CoV Urbani / Binding of serum 37 to looped/cyclic peptides of protein X5 of SARS-CoV Urbani / Binding of serum 6 to linear peptides of protein N of SARS-CoV Urbani / Binding of serum 37 to linear peptides of protein N of SARS-CoV Urbani / Binding of serum 6 to linear peptide (PEPSCAN-ELISA) / Binding of serum 1a to looped/cyclic peptides of protein N of SARS-CoV Urbani / Binding of serum 1b to looped/cyclic peptides of protein N of SARS-CoV Urbani / Binding of serum 2 to looped/cyclic peptides of protein N of SARS-CoV Urbani / Binding of serum 6 to looped/cyclic peptides of protein N of SARS-CoV Urbani / Binding of serum 37 to looped/cyclic peptides of protein N of SARS-CoV Urbani / Binding of serum 62 to looped/cyclic peptides of protein N of SARS-CoV Urbani / Binding of serum London to looped/cyclic peptides of protein N of SARS-CoV Urbani / Binding of serum SARS-green to looped/cyclic peptides of protein N of SARS-CoV Urbani: unit not given here
[2] = test system: control sera (pooled serum of ten healthy LUMC hospital workers; commercial negative donor pooled serum from the Dutch bloodbank); format: binding, human; parameters: Binding of Control serum LUMC to linear peptides / Binding of Control serum Blood-bank to linear peptides / Binding of Control serum LUMC to looped peptides / Binding of Control Serum Blood-Bank to Looped peptides / Binding of Control serum LUMC to linear peptides of the protein M of SARS-CoV Urbani / Binding of Control serum Blood-bank to linear peptides of the protein M of SARS-CoV Urbani / Binding of Control serum LUMC to looped peptides of the protein M of SARS-CoV Urbani / Binding of Control Serum Blood-Bank to Looped peptides of the protein M of SARS-CoV Urbani: unit not given here
[3] = test system: rabbit serum obtained by immunizing a rabbit with the SARS-CoV strain Frankfurt 1; format: binding; parameters: Binding of a rabbit serum to linear peptides / Binding of a rabbit serum to looped peptides / Rabbit serum linear peptides / Rabbit serum looped peptides / Binding of a rabbit serum to linear peptides of protein N of SARS-CoV Urbani (Rabbit serum linear peptides) / Binding of a rabbit serum to looped/cyclic peptides of protein N of SARS-CoV Urbani (Rabbit serum looped peptides): unit not given here
[4] = test system: recombinant human anti-SARS-CoV antibody 03-018; format: binding; parameters: Binding of antibody 03-018 to linear peptides of the N protein of SARS-CoV Urbani / Binding of antibody 03-018 to looped/cyclic peptides of the N protein of SARS-CoV Urbani: unit not given here

Sequence | Binding of serum 1a to linear peptides of protein N of SARS-CoV Urbani [1] | Binding of serum 1a to looped/cyclic peptides of protein N of SARS-CoV Urbani [1] | Binding of serum 1b to linear peptides of protein N of SARS-CoV Urbani [1] | Binding of serum 1b to looped/cyclic peptides of protein N of SARS-CoV Urbani [1] | Binding of serum 2 to linear peptides of protein N of SARS-CoV Urbani [1] | Binding of serum 2 to looped/cyclic peptides of protein N of SARS-CoV Urbani [1] | Binding of serum 6 to linear peptides of protein N of SARS-CoV Urbani [1] | Binding of serum 6 to looped/cyclic peptides of protein N of SARS-CoV Urbani [1] | Binding of serum 37 to linear peptides of protein N of SARS-CoV Urbani [1] | Binding of serum 37 to looped/cyclic peptides of protein N of SARS-CoV Urbani [1] | Binding of serum 62 to linear peptides of protein N of SARS-CoV Urbani [1] | Binding of serum 62 to looped/cyclic peptides of protein N of SARS-CoV Urbani [1] | Binding of serum London to linear peptides of protein N of SARS-CoV Urbani [1] | Binding of serum London to looped/cyclic peptides of protein N of SARS-CoV Urbani [1] | Binding of serum SARS-green to linear peptides of protein N of SARS-CoV Urbani [1] | Binding of serum SARS-green to looped/cyclic peptides of protein N of SARS-CoV Urbani [1] | Binding of serum SARS-yellow to linear peptides of protein N of SARS-CoV Urbani [1] | Binding of serum SARS-yellow to looped/cyclic peptides of protein N of SARS-CoV Urbani [1] | Binding of Control Serum Blood-Bank to Looped peptides [2] | Binding of Control serum Blood-bank to linear peptides [2] | also measured
EASLPYGANKEGIVW | 0.2 | 0.3 | 0.1 | 0.2 | 0.2 | 0.4 | 0.1 | 0.2 | 0.5 | 0.7 | 0.5 | 0.6 | 0.4 | 0.5 | 0.2 | 0.5 | 0.6 | 0.2 | 0.7 | 0.8 | Binding of Control serum LUMC to linear peptides [2]: 0.6; Binding of Control serum LUMC to looped peptides [2]: 0.6; Binding of a rabbit serum to linear peptides of protein N of SARS-CoV Urbani (Rabbit serum linear peptides) [3]: 0.1; Binding of a rabbit serum to looped/cyclic peptides of protein N of SARS-CoV Urbani (Rabbit serum looped peptides) [3]: 0.3; Binding of antibody 03-018 to linear peptides of the N protein of SARS-CoV Urbani [4]: 0.1; Binding of antibody 03-018 to looped/cyclic peptides of the N protein of SARS-CoV Urbani [4]: 0.2
EELRFPRGQGVPINT | 0.2 | 0.6 | 0.1 | 0.4 | 0.3 | 0.8 | 0.2 | 0.5 | 0.7 | 1.0 | 0.7 | 1.2 | 0.5 | 0.7 | 0.4 | 0.9 | 0.6 | 0.8 | 1.3 | 0.8 | Binding of Control serum LUMC to linear peptides [2]: 0.8; Binding of Control serum LUMC to looped peptides [2]: 1.1; Binding of a rabbit serum to linear peptides of protein N of SARS-CoV Urbani (Rabbit serum linear peptides) [3]: 0.1; Binding of a rabbit serum to looped/cyclic peptides of protein N of SARS-CoV Urbani (Rabbit serum looped peptides) [3]: 0.6; Binding of antibody 03-018 to linear peptides of the N protein of SARS-CoV Urbani [4]: 0.1; Binding of antibody 03-018 to looped/cyclic peptides of the N protein of SARS-CoV Urbani [4]: 0.3
ELRFPRGQGVPINTN | 0.2 | 0.4 | 0.1 | 0.3 | 0.3 | 0.5 | 0.1 | 0.3 | 0.7 | 0.7 | 0.7 | 0.6 | 0.5 | 0.5 | 0.4 | 0.7 | 0.6 | 0.4 | 0.7 | 0.6 | Binding of Control serum LUMC to linear peptides [2]: 0.8; Binding of Control serum LUMC to looped peptides [2]: 0.7; Binding of a rabbit serum to linear peptides of protein N of SARS-CoV Urbani (Rabbit serum linear peptides) [3]: 0.1; Binding of a rabbit serum to looped/cyclic peptides of protein N of SARS-CoV Urbani (Rabbit serum looped peptides) [3]: 0.4; Binding of antibody 03-018 to linear peptides of the N protein of SARS-CoV Urbani [4]: 0.1; Binding of antibody 03-018 to looped/cyclic peptides of the N protein of SARS-CoV Urbani [4]: 0.2
ELSPRWYFYYLGTGP | 0.2 | 0.3 | 0.2 | 0.2 | 0.3 | 0.4 | 0.2 | 0.2 | 0.8 | 0.8 | 0.7 | 0.7 | 0.5 | 0.4 | 0.4 | 0.3 | 0.7 | 0.5 | 0.7 | 0.6 | Binding of Control serum LUMC to linear peptides [2]: 0.5; Binding of Control serum LUMC to looped peptides [2]: 0.5; Binding of a rabbit serum to linear peptides of protein N of SARS-CoV Urbani (Rabbit serum linear peptides) [3]: 0.1; Binding of a rabbit serum to looped/cyclic peptides of protein N of SARS-CoV Urbani (Rabbit serum looped peptides) [3]: 0.4; Binding of antibody 03-018 to linear peptides of the N protein of SARS-CoV Urbani [4]: 0.1; Binding of antibody 03-018 to looped/cyclic peptides of the N protein of SARS-CoV Urbani [4]: 0.2
